Results taken from the supplement of paper PMC10627819.

Key:
S. aureus Newman [1] = experiment: fitness (endpoint OD595 vs no drug) (fraction); higher = more growth; details: one replicate
Method in brief: (§1)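 Fitness compares growth at the stationary-phase transition with the robust mean of no-drug control wells, as a ratio of optical densities. The ratio is capped at 1. Wells of 384-well plates held 30 µl, or 55 µl for S. pneumoniae, inoculated at OD595 0.01. Readings at OD595 every 30 min for 14 h at 37 °C were corrected against the first reading.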

S. aureus DSM 20231 = experiment: Bliss interaction score (quartile over a dose matrix) (fitness difference); higher = more antagonism (negative = synergy)
Method in brief: (§2)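 Quartiles of the Bliss score were taken over technical, biological and donor/recipient replicates. That score is observed fitness minus the product of the single-drug fitness values, which were inferred from combination data. Fitness itself is OD595 at entry into stationary phase divided by the plate's robust no-drug mean, with a cap at 1.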

S. pneumoniae D39V [2] = experiment: as above
Method in brief: as §2

S. aureus Newman [3] = experiment: as above
Method in brief: as §2

B. subtilis 168 [4] = experiment: as above
Method in brief: as §2

S. pneumoniae D39V [5] = experiment: fitness (endpoint OD595 vs no drug) (fraction); higher = more growth
Method in brief: as §1

B. subtilis 168 [6] = experiment: as above
Method in brief: as §1
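For Bliss interaction score (quartile over a dose matrix) in this document: first quartile when negative (synergy) and third quartile when positive (antagonism).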

CC[C@H]1OC(=O)[C@H](C)[C@@H](O[C@H]2C[C@@](C)(OC)[C@@H](O)[C@H](C)O2)[C@H](C)[C@@H](O[C@@H]2O[C@H](C)C[C@H](N(C)C)[C@H]2O)[C@](C)(O)C[C@@H](C)CN(C)[C@H](C)[C@@H](O)[C@]1(C)O [Azithromycin] + C/C(=C\C(=O)OCCCCCCCCC(=O)O)C[C@@H]1OC[C@H](C[C@@H]2O[C@H]2[C@@H](C)[C@H](C)O)[C@@H](O)[C@H]1O [Pseudomonic acid]
fitness, S. aureus Newman [1]
Details	first compound 0.125 µg/mL	first compound 0.25 µg/mL	first compound 0.5 µg/mL
partner 0.0313 µg/mL	0.0547	0.0237	0
partner 0.0625 µg/mL	0.0262	0.0139	0.0154
partner 0.125 µg/mL	0.0288	0.0141	0.0119

Details	Bliss interaction score
B. subtilis 168 [4]	-0.0541
S. aureus DSM 20231	-0.0221
S. aureus Newman [3]	-0.0303
S. pneumoniae D39V [2]	-0.0833

CC1=C(C(=O)O)N2C(=O)[C@@H](NC(=O)[C@H](N)c3ccccc3)[C@H]2SC1 [Cephalexin] + C/C(=C\C(=O)OCCCCCCCCC(=O)O)C[C@@H]1OC[C@H](C[C@@H]2O[C@H]2[C@@H](C)[C@H](C)O)[C@@H](O)[C@H]1O [Pseudomonic acid]
fitness, S. pneumoniae D39V [5], one replicate
Details	first compound 0.125 µg/mL	first compound 0.25 µg/mL	first compound 0.5 µg/mL
partner 0.03 µg/mL	0.933	0.958	≥ 1
partner 0.06 µg/mL	0.733	0.828	0.893
partner 0.12 µg/mL	0.45	0.559	0.616

fitness
Details	first compound 0.5 µg/mL	first compound 1 µg/mL	first compound 2 µg/mL	first compound 4 µg/mL
S. aureus Newman [1], partner 0.0313 µg/mL	0.0692	0.0733	0.0904	–
S. aureus Newman [1], partner 0.0625 µg/mL	0.036	0.0347	0.0466	–
S. aureus Newman [1], partner 0.125 µg/mL	0.0496	0.0429	0.049	–
S. pneumoniae D39V [5], partner 0.03 µg/mL	–	0.67	–	0.0998
S. pneumoniae D39V [5], partner 0.06 µg/mL	–	0.6	–	0.123
S. pneumoniae D39V [5], partner 0.12 µg/mL	–	0.38	0.215	0.122

Details	Bliss interaction score
B. subtilis 168 [4]	0.0311
S. aureus DSM 20231	0.0119
S. aureus Newman [3]	0.0223
S. pneumoniae D39V [2]	0.154

CC1=C(C(=O)O)N2C(=O)[C@@H](NC(=O)[C@H](N)c3ccccc3)[C@H]2SC1 [Cephalexin] + CC(=O)NC[C@H]1CN(c2ccc(N3CCOCC3)c(F)c2)C(=O)O1 [Linezolid]
fitness, one replicate
Details	first compound 0.125 µg/mL	first compound 0.25 µg/mL	first compound 0.5 µg/mL	first compound 1 µg/mL
B. subtilis 168 [6], partner 0.0625 µg/mL	–	0.901	0.932	0.877
B. subtilis 168 [6], partner 0.125 µg/mL	–	–	–	0.66
B. subtilis 168 [6], partner 0.25 µg/mL	–	–	–	0.0828
S. pneumoniae D39V [5], partner 0.2 µg/mL	0.778	0.84	0.829	–
S. pneumoniae D39V [5], partner 0.4 µg/mL	0.667	0.707	0.726	–
S. pneumoniae D39V [5], partner 0.8 µg/mL	0.222	0.36	0.375	–

fitness
Details	first compound 0.125 µg/mL	first compound 0.25 µg/mL	first compound 0.5 µg/mL	first compound 1 µg/mL	first compound 2 µg/mL	first compound 4 µg/mL
B. subtilis 168 [6], partner 0.125 µg/mL	0.569	0.582	0.601	–	–	–
B. subtilis 168 [6], partner 0.25 µg/mL	0.121	0.119	0.117	–	–	–
B. subtilis 168 [6], partner 0.5 µg/mL	0.0468	0.0463	0.0421	–	–	–
S. pneumoniae D39V [5], partner 0.105 µg/mL	–	–	–	0.606	0.0569	0.0509
S. pneumoniae D39V [5], partner 0.21 µg/mL	–	–	–	0.475	0.0291	0
S. pneumoniae D39V [5], partner 0.42 µg/mL	–	–	–	0.332	0.0014	0.0511

Details	Bliss interaction score
B. subtilis 168 [4]	0.0768
S. aureus DSM 20231	0.0858
S. aureus Newman [3]	0.106
S. pneumoniae D39V [2]	-0.075

CC1=C(C(=O)O)N2C(=O)[C@@H](NC(=O)[C@H](N)c3ccccc3)[C@H]2SC1 [Cephalexin] + CCC(C)C1C(=O)NC(=C)C(=O)NC(C(=O)NC(CSCC(C(=O)N1)NC(=O)/C(=C/C)/NC(=O)C(C(C)CC)N)C(=O)NC2C(SCC(NC(=O)CNC(=O)C3CCCN3C2=O)C(=O)NC(CCCCN)C(=O)NC4C(SCC(NC(=O)CNC(=O)C(NC(=O)C(NC(=O)C(NC(=O)CNC4=O)C)CC(C)C)CCSC)C(=O)NC(CC(=O)N)C(=O)NC(CCSC)C(=O)NC(CCCCN)C(=O)NC5C(SCC6C(=O)NC(C(=O)NC(CSC(C(C(=O)N6)NC(=O)C(NC5=O)C)C)C(=O)NC(CO)C(=O)NC(C(C)CC)C(=O)NC(CC7=CN=CN7)C(=O)NC(C(C)C)C(=O)NC(=C)C(=O)NC(CCCCN)C(=O)O)CC8=CN=CN8)C)C)C)CC(C)C [Nisin]
fitness, one replicate, main component drawn
Details	first compound 0.125 µg/mL	first compound 0.25 µg/mL	first compound 0.5 µg/mL	first compound 1 µg/mL
B. subtilis 168 [6], partner 0.5 µg/mL	0.827	0.849	0.85	–
B. subtilis 168 [6], partner 1 µg/mL	0.819	0.833	0.845	–
B. subtilis 168 [6], partner 1.25 µg/mL	–	≥ 1	0.914	0.959
B. subtilis 168 [6], partner 1.6 µg/mL	–	0.8	0.735	0.85
B. subtilis 168 [6], partner 2 µg/mL	0.564	0.546	0.643	–
B. subtilis 168 [6], partner 2.5 µg/mL	–	0.323	0.638	0.621
B. subtilis 168 [6], partner 3.2 µg/mL	–	0.0408	0.05	0.038
B. subtilis 168 [6], partner 4 µg/mL	0.0357	0.0253	0.0342	–
B. subtilis 168 [6], partner 5 µg/mL	–	0.0428	0.0078	0.0511
B. subtilis 168 [6], partner 6.4 µg/mL	–	0.055	0.052	0.0405
B. subtilis 168 [6], partner 8 µg/mL	0.0286	0.0256	0.0219	–
B. subtilis 168 [6], partner 16 µg/mL	0.0223	0.0191	0.051	–
S. pneumoniae D39V [5], partner 1.6 µg/mL	0.111	0.067	0.12	–
S. pneumoniae D39V [5], partner 3.2 µg/mL	0.0257	0.0254	0.0215	–
S. pneumoniae D39V [5], partner 6.4 µg/mL	0.0326	0.0252	0.0194	–

fitness, S. pneumoniae D39V [5], main component drawn
Details	first compound 1 µg/mL	first compound 2 µg/mL	first compound 4 µg/mL
partner 0.4275 µg/mL	–	–	0.0461
partner 0.855 µg/mL	–	0.0896	0.05
partner 1.71 µg/mL	0.0562	0.0571	0.0769

main component drawn
Details	Bliss interaction score
B. subtilis 168 [4]	0.0739
S. aureus DSM 20231	0.0845
S. aureus Newman [3]	0.0391
S. pneumoniae D39V [2]	-0.0433
